Read-outs that look alike come from different tables or passages of the source.
Legend:
EPO gene = assay: Cell-based luciferase reporter assay, pEPO HRE-Luc in HeLa cells; conditions: Homo sapiens, compound 100 μM, 24 hrs, read-out: EPO fold induction over control
Excerpt: (§1) A luciferase assay was used to determine the changes in transcription amount of EPO and VEGF genes in cells. For the luciferase assay, a human HIF I a gene was first cloned into an animal cell expression vector, pFlag-CMV, to prepare a pFlag-HIF1α vector, and a hypoxia responsible element (HRE) sequence of an EPO gene 3′-enhancer domain was then cloned upstream of luciferase and TK promoter genes to prepare a pEPO HRE-Luc expression vector. Also, the promoter and luciferase domains of the VEGF gene were cloned into a pGL3-basic vector to prepare a pVEGF-Luc expression vector. HeLa cells were seed-cultured in a medium dish to grow to about 70-80% density one day before the HeLa cells were to be used. The HeLa cells were transfected with each of the prepared pEPO HRE-Luc and pVEGF-Luc expression vectors together with the pFlag-HIF1α and the Renilla luciferase expression vector (Promega, Madison, Wis., USA), by using LipofectAMINE PLUS™ (Invitrogen Life Technologies, Carlsbad Calif.). Three hours after the transfection, the medium was exchanged with DMEM, 1% Penicillin-Streptomycin in 10% FBS supplemented with serum. At this time, cultured cells were treated with each of the compounds at the concentrations indicated. Then, the cells were cultured for 24 hrs in an incubator that was maintained under conditions of 37° C., 20% O2 and 5% CO2. After culturing, cells were washed twice with cold phosphate buffer saline (PBS). Luciferase activity of the cells was measured using the dual luciferase assay system (Promega, Madison, Wis., USA).

VEGF gene = assay: Cell-based luciferase reporter assay, pVEGF-Luc in HeLa cells; conditions: Homo sapiens, compound 100 μM, 24 hrs
Excerpt: as §1

HIF-PH2 (EGLN1) = biological target: T1, HIF-PH2 (EGLN1) (Homo sapiens, UniProt Q9GZT9); assay: HIF-PH2 (PHD2) assay (fluorescence polarization method); format: biochemical; conditions: 200 nM HIF PH2 enzyme, 50 nM peptide substrate, 30° C. one hour; read-out: IC50 (HIF PH2 inhibition activity)
T1 construct: made in house; host or cells: E. coli
Procedure: HIF-PH2 (EGLN1) was expressed from E. coli cells, and purified using two process: an Ni-affinity chromatography column and a size-exclusion chromatography column.
To evaluate activities of an HIF PH2 inhibitor, HIF PH2 enzyme that was first overexpressed by genetic recombination and then purified was used to perform an enzyme reaction. […] At this time, 2 mM ascorbic acid and 5 mM ketoglutarate with 100 μM FeCl2 or without FeCl2, were used together with crude enzyme. A concentration of HIF PH2 inhibitor to be tested was treated and reacted at 30° C. for one hour. After the reaction, the resulting reaction product was boiled at 95° C. for one minute to suppress the enzyme reaction.
To determine whether prolyl hydroxylation occurs in the substrate as the secondary reaction, 500 nM GST-VBC (GST-VHL-Elongin B-Elongin C) protein was added to a reaction buffer (50 mM Tris-Cl (pH8.0), 120 mM NaCl, 0.5% Nonidet P40), and a GST-VBC binding reaction was carried out at room temperature for 30 minutes.
A fluorescence polarization value of a sample that is not treated with the HIF PH2 inhibitor was used as 100% control, and the activities of the HIF PH2 inhibitor were measured as percentage of the remaining HIF PH2 enzyme activity in samples treated with a concentration of the HIF PH2 inhibitor to be tested.

EPO = assay: Human EPO immunoassay (ELISA of Hep3B culture media); format: cell-based; conditions: Hep3B cells, compound at 100 μM, 24-hour incubation; for EPO (mIU/ml): culture media ELISA; for fold induction at 100 µM: Homo sapiens, read-out: Fold Induction over control (EPO Induction)
Procedure: Human cells derived from hepatocarcinoma (Hep3B) tissue (see, e.g., American Type Culture Collection, Manassas Va.) were grown at 37° C., 20% O2, 5% CO2 in DMEM (GIBCO)+10% FBS, 4.5 g/L D-Glucose; L-Glutamate and 110 mg/L sodium pyruvate. Ninety-six well plates were seeded with 4×10^4 HEP3B cells/well. The media was removed and replaced with DMEM+10% FBS. Compounds were added to wells at concentrations between 1 μM-100 μM for a 24-hour incubation. Cell culture media was harvested and EPO concentration was determined using a Human Erythropoietin Quantikine IVD ELISA Kit (R&D Systems®, Minneapolis, Minn.) following the manufacturer's instructions for the benchtop assay.

[1] = read-out: VEGF 1 fold induction over control
[2] = read-out: VEGF 2 fold induction over control

T1 sequence (Q9GZT9 whole entry, species assumed): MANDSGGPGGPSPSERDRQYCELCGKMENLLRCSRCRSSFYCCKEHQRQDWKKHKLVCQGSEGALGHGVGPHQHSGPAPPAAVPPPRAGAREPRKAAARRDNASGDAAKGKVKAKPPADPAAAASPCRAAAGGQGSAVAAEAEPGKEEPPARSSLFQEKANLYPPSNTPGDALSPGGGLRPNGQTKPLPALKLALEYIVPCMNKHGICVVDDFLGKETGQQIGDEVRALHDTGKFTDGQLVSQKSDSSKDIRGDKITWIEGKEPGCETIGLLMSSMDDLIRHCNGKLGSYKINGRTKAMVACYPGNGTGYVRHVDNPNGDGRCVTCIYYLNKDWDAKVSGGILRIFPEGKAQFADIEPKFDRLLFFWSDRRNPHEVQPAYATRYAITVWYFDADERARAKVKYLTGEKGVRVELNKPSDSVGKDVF

SMILES	IC50 (HIF-PH2 (EGLN1)) [µM]	fold induction at 100 µM (EPO gene)	fold induction at 100 µM (VEGF gene; [1])	fold induction at 100 µM (VEGF gene; [2])	EPO (mIU/ml) (EPO)	fold induction at 100 µM (EPO)
COc1ccc(Cn2nnnc2CNC(=O)c2nc(Br)c3c(sc4ccccc43)c2O)cc1 [1-Bromo-4-hydroxy-benzo[4,5]thieno[3,2-c]pyridine-3-carboxylic acid [1-(4-methoxy-benzyl)-1H-tetrazol-5-ylmethyl]-amide]	26 to 100	< 2	< 2			
O=C(NCc1ccccc1)c1nc(Br)c2c(sc3ccccc32)c1O [1-Bromo-4-hydroxy-benzo[4,5]thieno[3,2-c]pyridine-3-carboxylic acid benzylamide]	26 to 100	< 2	< 2			
C[C@H](NC(=O)c1nc(Br)c2c(sc3ccccc32)c1O)C(=O)O [(S)-2-[(1-Bromo-4-hydroxy-benzo[4,5]thieno[3,2-c]pyridine-3-carbonyl)-amino]-propionic acid]	26 to 100	2.1 to 4	> 4.1			
C[C@H](NC(=O)c1nc(Cl)c2c(sc3ccccc32)c1O)C(=O)O [(S)-2-[(1-Chloro-4-hydroxy-benzo[4,5]thieno[3,2-c]pyridine-3-carbonyl)-amino]-propionic acid]	26 to 100	2.1 to 4	> 4.1			
O=C(O)CNC(=O)c1nc(Cl)c2c(sc3ccccc32)c1O [[(1-Chloro-4-hydroxy-benzo[4,5]thieno[3,2-c]pyridine-3-carbonyl)-amino]-acetic acid]		> 4.1	> 4.1	> 4.1	J (J = 21-40 mIU/ml)	21 to 50
N#Cc1nc(C(=O)NCC(=O)O)c(O)c2sc3ccccc3c12 [[(1-Cyano-4-hydroxy-benzo[4,5]thieno[3,2-c]pyridine-3-carbonyl)-amino]-acetic acid]		< 2	2.1 to 4			
O=C(O)CNC(=O)c1ncc2c(cnn2-c2ccccc2)c1O [[(4-Hydroxy-1-phenyl-1H-pyrazolo[3,4-c]pyridine-5-carbonyl)-amino]-acetic acid]	< 25	> 4.1	2.1 to 4			
O=C(O)CNC(=O)c1nc(Cl)c2c(cnn2-c2ccccc2)c1O [[(7-Chloro-4-hydroxy-1-phenyl-1H-pyrazolo[3,4-c]pyridine-5-carbonyl)-amino]-acetic acid]	< 25	> 4.1	2.1 to 4			
CC(=O)Nc1ccc2sc3c(O)c(C(=O)NCC(=O)O)nc(Cl)c3c2c1 [[(8-Acetylamino-1-chloro-4-hydroxy-benzo[4,5]thieno[3,2-c]pyridine-3-carbonyl)-amino]-acetic acid]	< 25			< 2		

More lines, main results first:

IC50 (HIF-PH2 (EGLN1)) [µM]	SMILES	fold induction at 100 µM (EPO gene)	fold induction at 100 µM (VEGF gene; [1])	fold induction at 100 µM (VEGF gene; [2])	EPO (mIU/ml) (EPO)	fold induction at 100 µM (EPO)
< 25	O=C(NCc1ccccn1)c1nc(Br)c2c(sc3ccccc32)c1O [1-Bromo-4-hydroxy-benzo[4,5]thieno[3,2-c]pyridine-3-carboxylic acid (pyridin-2-ylmethyl)-amide]	< 2	2.1 to 4			
< 25	COc1ccc(Cn2nnc(CNC(=O)c3nc(Br)c4c(sc5ccccc54)c3O)n2)cc1 [1-Bromo-4-hydroxy-benzo[4,5]thieno[3,2-c]pyridine-3-carboxylic acid [2-(4-methoxy-benzyl)-2H-tetrazol-5-ylmethyl]-amide]	< 2	2.1 to 4			
< 25	Nc1ccc2sc3c(O)c(C(=O)NCC(=O)O)nc(Cl)c3c2c1 [3-(Carboxymethyl-carbamoyl)-1-chloro-4-hydroxy-benzo[4,5]thieno[3,2-c]pyridin-8-yl-ammonium]	2.1 to 4	2.1 to 4			
< 25	O=C(O)CNC(=O)c1nc(Br)c2c(sc3ccccc32)c1O [[(1-Bromo-4-hydroxy-benzo[4,5]thieno[3,2-c]pyridine-3-carbonyl)-amino]-acetic acid]	> 4.1	4			
< 25	O=C(O)CNC(=O)c1nc(Cl)c2c(sc3ccc([N+](=O)[O-])cc32)c1O [[(1-Chloro-4-hydroxy-8-nitro-benzo[4,5]thieno[3,2-c]pyridine-3-carbonyl)-amino]-acetic acid]	2.1 to 4	> 4.1			
< 25	O=C(O)CNC(=O)c1nc(Cl)c2c(sc3c(F)cccc32)c1O [[(1-Chloro-6-fluoro-4-hydroxy-benzo[4,5]thieno[3,2-c]pyridine-3-carbonyl)-amino]-acetic acid]	2.1 to 4	2.1 to 4		I (I = 0-20 mIU/ml)	< 20
< 25	O=C(O)CNC(=O)c1nc(Cl)c2c(sc3cc(F)ccc32)c1O [[(1-Chloro-7-fluoro-4-hydroxy-benzo[4,5]thieno[3,2-c]pyridine-3-carbonyl)-amino]-acetic acid]	> 4.1	> 4.1		K (K = 41-60 mIU/ml)	51 to 70
< 25	CN(C)c1ccc2sc3c(O)c(C(=O)NCC(=O)O)nc(Cl)c3c2c1 [[(1-Chloro-8-dimethylamino-4-hydroxy-benzo[4,5]thieno[3,2-c]pyridine-3-carbonyl)-amino]-acetic acid]	> 4.1	> 4.1			
< 25	O=C(O)CNC(=O)c1nc(Cl)c2c(sc3ccc(F)cc32)c1O [[(1-Chloro-8-fluoro-4-hydroxy-benzo[4,5]thieno[3,2-c]pyridine-3-carbonyl)-amino]-acetic acid]	> 4.1	2.1 to 4		J (J = 21-40 mIU/ml)	21 to 50
< 25	O=C(O)CNC(=O)c1nc(Cl)c2c(sc3cccc(F)c32)c1O [[(1-Chloro-9-fluoro-4-hydroxy-benzo[4,5]thieno[3,2-c]pyridine-3-carbonyl)-amino]-acetic acid]			2.1 to 4	K (K = 41-60 mIU/ml)	> 71
